Experimental data from ChEMBL document CHEMBL5154747, “Discovery of new carbonic anhydrase IX inhibitors as anticancer agents by toning the hydrophobic and hydrophilic rims of the active site to encounter the dual-tail approach” (Eur J Med Chem, 2022).

How the values were obtained:
UACC-62 = assay: Anticancer activity against human UACC-62 cells assessed as cell growth inhibition at 10 uM incubated for 48 hrs by SRB assay relative to control; assay type: functional; conditions: read-out: GI
OVCAR-3 = assay: Anticancer activity against human OVCAR-3 cells assessed as cell growth inhibition at 10 uM incubated for 48 hrs by SRB assay relative to control; assay type: functional; conditions: read-out: GI
T47D = assay: Anticancer activity against human T47D cells assessed as cell growth inhibition at 10 uM incubated for 48 hrs by SRB assay relative to control; assay type: functional; conditions: read-out: GI
SR = assay: Anticancer activity against human SR cells assessed as cell growth inhibition at 10 uM incubated for 48 hrs by SRB assay relative to control; assay type: functional; conditions: read-out: GI
SW-620 = assay: Anticancer activity against human SW-620 cells assessed as cell growth inhibition at 10 uM incubated for 48 hrs by SRB assay relative to control; assay type: functional; conditions: read-out: GI
NCI-H23 = assay: Anticancer activity against human NCI-H23 cells assessed as cell growth inhibition at 10 uM incubated for 48 hrs by SRB assay relative to control; assay type: functional; conditions: read-out: GI
ACHN = assay: Anticancer activity against human ACHN cells assessed as cell growth inhibition at 10 uM incubated for 48 hrs by SRB assay relative to control; assay type: functional; conditions: read-out: GI
SF-268 = assay: Anticancer activity against human SF-268 cells assessed as cell growth inhibition at 10 uM incubated for 48 hrs by SRB assay relative to control; assay type: functional; conditions: read-out: GI
MDA-MB-231 = assay: Anticancer activity against human MDA-MB-231 cells assessed as cell growth inhibition at 10 uM incubated for 48 hrs by SRB assay relative to control; assay type: functional; conditions: read-out: GI
KM12 = assay: Anticancer activity against human KM12 cells assessed as cell growth inhibition at 10 uM incubated for 48 hrs by SRB assay relative to control; assay type: functional; conditions: read-out: GI
Carbonic anhydrase 9 = Carbonic anhydrase 9 (Homo sapiens, UniProt Q16790); assay: Inhibition of recombinant human CA 9 preincubated for 15 mins by phenol red dye based stopped flow CO2 hydration assay
PC-3 = assay: Anticancer activity against human PC-3 cells assessed as cell growth inhibition at 10 uM incubated for 48 hrs by SRB assay relative to control; assay type: functional; conditions: read-out: GI
HCT-116 = assay: Anticancer activity against human HCT-116 cells assessed as cell growth inhibition at 10 uM incubated for 48 hrs by SRB assay relative to control; assay type: functional; conditions: read-out: GI
OVCAR-5 = assay: Anticancer activity against human OVCAR-5 cells assessed as cell growth inhibition at 10 uM incubated for 48 hrs by SRB assay relative to control; assay type: functional; conditions: read-out: GI
NCI-H226 = assay: Anticancer activity against human NCI-H226 cells assessed as cell growth inhibition at 10 uM incubated for 48 hrs by SRB assay relative to control; assay type: functional; conditions: read-out: GI
K562 = assay: Anticancer activity against human K562 cells assessed as cell growth inhibition at 10 uM incubated for 48 hrs by SRB assay relative to control; assay type: functional; conditions: read-out: GI
UACC-257 = assay: Anticancer activity against human UACC-257 cells assessed as cell growth inhibition at 10 uM incubated for 48 hrs by SRB assay relative to control; assay type: functional; conditions: read-out: GI
BT-549 = assay: Anticancer activity against human BT-549 cells assessed as cell growth inhibition at 10 uM incubated for 48 hrs by SRB assay relative to control; assay type: functional; conditions: read-out: GI
A549 = assay: Anticancer activity against human A549 cells assessed as cell growth inhibition at 10 uM incubated for 48 hrs by SRB assay relative to control; assay type: functional; conditions: read-out: GI
U-251 = assay: Anticancer activity against human U-251 cells assessed as cell growth inhibition at 10 uM incubated for 48 hrs by SRB assay relative to control; assay type: functional; conditions: read-out: GI
RPMI-8226 = assay: Anticancer activity against human RPMI-8226 cells assessed as cell growth inhibition at 10 uM incubated for 48 hrs by SRB assay relative to control; assay type: functional; conditions: read-out: GI
MDA-MB-435 = assay: Anticancer activity against human MDA-MB-435 cells assessed as cell growth inhibition at 10 uM incubated for 48 hrs by SRB assay relative to control; assay type: functional; conditions: read-out: GI
NCI-H460 = assay: Anticancer activity against human NCI-H460 cells assessed as cell growth inhibition at 10 uM incubated for 48 hrs by SRB assay relative to control; assay type: functional; conditions: read-out: GI
HCT-15 = assay: Anticancer activity against human HCT-15 cells assessed as cell growth inhibition at 10 uM incubated for 48 hrs by SRB assay relative to control; assay type: functional; conditions: read-out: GI
MDA-MB-468 = assay: Anticancer activity against human MDA-MB-468 cells assessed as cell growth inhibition at 10 uM incubated for 48 hrs by SRB assay relative to control; assay type: functional; conditions: read-out: GI
HOP-62 = assay: Anticancer activity against human HOP-62 cells assessed as cell growth inhibition at 10 uM incubated for 48 hrs by SRB assay relative to control; assay type: functional; conditions: read-out: GI
NCI/ADR-RES = assay: Anticancer activity against human NCI/ADR-RES cells assessed as cell growth inhibition at 10 uM incubated for 48 hrs by SRB assay relative to control; assay type: functional; conditions: read-out: GI
MOLT-4 = assay: Anticancer activity against human MOLT-4 cells assessed as cell growth inhibition at 10 uM incubated for 48 hrs by SRB assay relative to control; assay type: functional; conditions: read-out: GI
A498 = assay: Anticancer activity against human A498 cells assessed as cell growth inhibition at 10 uM incubated for 48 hrs by SRB assay relative to control; assay type: functional; conditions: read-out: GI
HL-60(TB) = assay: Anticancer activity against human HL-60(TB) cells assessed as cell growth inhibition at 10 uM incubated for 48 hrs by SRB assay relative to control; assay type: functional; conditions: read-out: GI
CCRF-CEM = assay: Anticancer activity against human CCRF-CEM cells assessed as cell growth inhibition at 10 uM incubated for 48 hrs by SRB assay relative to control; assay type: functional; conditions: read-out: GI
HOP-92 = assay: Anticancer activity against human HOP-92 cells assessed as cell growth inhibition at 10 uM incubated for 48 hrs by SRB assay relative to control; assay type: functional; conditions: read-out: GI
SK-MEL-2 = assay: Anticancer activity against human SK-MEL-2 cells assessed as cell growth inhibition at 10 uM incubated for 48 hrs by SRB assay relative to control; assay type: functional; conditions: read-out: GI
HCC 2998 = assay: Anticancer activity against human HCC 2998 cells assessed as cell growth inhibition at 10 uM incubated for 48 hrs by SRB assay relative to control; assay type: functional; conditions: read-out: GI
MCF7 = assay: Anticancer activity against human MCF7 cells assessed as cell growth inhibition at 10 uM incubated for 48 hrs by SRB assay relative to control; assay type: functional; conditions: read-out: GI
OVCAR-4 = assay: Anticancer activity against human OVCAR-4 cells assessed as cell growth inhibition at 10 uM incubated for 48 hrs by SRB assay relative to control; assay type: functional; conditions: read-out: GI
CAKI-1 = assay: Anticancer activity against human CAKI-1 cells assessed as cell growth inhibition at 10 uM incubated for 48 hrs by SRB assay relative to control; assay type: functional; conditions: read-out: GI
SF-539 = assay: Anticancer activity against human SF-539 cells assessed as cell growth inhibition at 10 uM incubated for 48 hrs by SRB assay relative to control; assay type: functional; conditions: read-out: GI
SNB-75 = assay: Anticancer activity against human SNB-75 cells assessed as cell growth inhibition at 10 uM incubated for 48 hrs by SRB assay relative to control; assay type: functional; conditions: read-out: GI
SK-MEL-5 = assay: Anticancer activity against human SK-MEL-5 cells assessed as cell growth inhibition at 10 uM incubated for 48 hrs by SRB assay relative to control; assay type: functional; conditions: read-out: GI

Row | SMILES | inhibition of growth at 10 µM (UACC-62) [%] | inhibition of growth at 10 µM (OVCAR-3) [%] | inhibition of growth at 10 µM (T47D) [%] | inhibition of growth at 10 µM (SR) [%] | inhibition of growth at 10 µM (SW-620) [%] | inhibition of growth at 10 µM (NCI-H23) [%] | inhibition of growth at 10 µM (ACHN) [%] | inhibition of growth at 10 µM (SF-268) [%] | inhibition of growth at 10 µM (MDA-MB-231) [%] | inhibition of growth at 10 µM (KM12) [%] | Ki (Carbonic anhydrase 9) [nM] | inhibition of growth at 10 µM (PC-3) [%] | inhibition of growth at 10 µM (HCT-116) [%] | inhibition of growth at 10 µM (OVCAR-5) [%] | inhibition of growth at 10 µM (NCI-H226) [%] | inhibition of growth at 10 µM (K562) [%] | inhibition of growth at 10 µM (UACC-257) [%] | inhibition of growth at 10 µM (BT-549) [%] | inhibition of growth at 10 µM (A549) [%] | inhibition of growth at 10 µM (U-251) [%] | further results
1 | NS(=O)(=O)c1ccc(Nc2nc(N/N=C/c3ccc([N+](=O)[O-])cc3)nc(Nc3ccccc3)n2)cc1 | 54 | 53 | 85 | 84 | 81 | 87 | 17 | 73 | 54 | 62 | 31.7 | 49 | 83 | 18 | 40 | 79 | 17 | 81 | < 10 | 81 | inhibition of growth at 10 µM (RPMI-8226): 56%; inhibition of growth at 10 µM (MDA-MB-435): 66%; inhibition of growth at 10 µM (NCI-H460): 98%; inhibition of growth at 10 µM (HCT-15): 13%; inhibition of growth at 10 µM (MDA-MB-468): 98%; inhibition of growth at 10 µM (HOP-62): 90%; inhibition of growth at 10 µM (NCI/ADR-RES): < 10%; inhibition of growth at 10 µM (MOLT-4): 88%; inhibition of growth at 10 µM (A498): 81%; inhibition of growth at 10 µM (HL-60(TB)): 64%; inhibition of growth at 10 µM (CCRF-CEM): 88%; inhibition of growth at 10 µM (HOP-92): 50%; inhibition of growth at 10 µM (SK-MEL-2): 81%; inhibition of growth at 10 µM (HCC 2998): 80%; inhibition of growth at 10 µM (MCF7): 90%; inhibition of growth at 10 µM (OVCAR-4): 44%; inhibition of growth at 10 µM (CAKI-1): 49%; inhibition of growth at 10 µM (SF-539): 136%; inhibition of growth at 10 µM (SNB-75): 54%; inhibition of growth at 10 µM (SK-MEL-5): 67%
2 | NS(=O)(=O)c1ccc(Nc2nc(N/N=C/c3c[nH]c4ccccc34)nc(Nc3ccccc3)n2)cc1 | 61 | 73 | 64 | 87 | 50 | 52 | 18 | 40 | 51 | 72 | 25.8 | 73 | 84 | 12 | 58 | 77 | 36 | 51 | 21 | 71 | inhibition of growth at 10 µM (RPMI-8226): 105%; inhibition of growth at 10 µM (MDA-MB-435): 68%; inhibition of growth at 10 µM (NCI-H460): 58%; inhibition of growth at 10 µM (HCT-15): 24%; inhibition of growth at 10 µM (MDA-MB-468): 47%; inhibition of growth at 10 µM (HOP-62): 36%; inhibition of growth at 10 µM (NCI/ADR-RES): < 10%; inhibition of growth at 10 µM (MOLT-4): 80%; inhibition of growth at 10 µM (A498): 48%; inhibition of growth at 10 µM (HL-60(TB)): 65%; inhibition of growth at 10 µM (CCRF-CEM): 87%; inhibition of growth at 10 µM (HOP-92): 38%; inhibition of growth at 10 µM (SK-MEL-2): 32%; inhibition of growth at 10 µM (HCC 2998): 47%; inhibition of growth at 10 µM (MCF7): 81%; inhibition of growth at 10 µM (OVCAR-4): 40%; inhibition of growth at 10 µM (CAKI-1): 46%; inhibition of growth at 10 µM (SF-539): 52%; inhibition of growth at 10 µM (SNB-75): 29%; inhibition of growth at 10 µM (SK-MEL-5): 60%
3 | CCCCc1nc(/C=N/Nc2nc(Nc3ccccc3)nc(Nc3ccc(S(N)(=O)=O)cc3)n2)c(Cl)[nH]1 | 27 | 53 | 85 | 88 | 24 | < 10 | < 10 | 34 | 33 | < 10 | 259 | 17 | < 10 | < 10 | < 10 | 62 | < 10 | 52 | < 10 | 101 | inhibition of growth at 10 µM (RPMI-8226): < 10%; inhibition of growth at 10 µM (MDA-MB-435): < 10%; inhibition of growth at 10 µM (NCI-H460): < 10%; inhibition of growth at 10 µM (HCT-15): < 10%; inhibition of growth at 10 µM (MDA-MB-468): 112%; inhibition of growth at 10 µM (HOP-62): < 10%; inhibition of growth at 10 µM (NCI/ADR-RES): < 10%; inhibition of growth at 10 µM (MOLT-4): 58%; inhibition of growth at 10 µM (A498): 10%; inhibition of growth at 10 µM (HL-60(TB)): < 10%; inhibition of growth at 10 µM (CCRF-CEM): 87%; inhibition of growth at 10 µM (HOP-92): 39%; inhibition of growth at 10 µM (SK-MEL-2): 34%; inhibition of growth at 10 µM (HCC 2998): 29%; inhibition of growth at 10 µM (MCF7): 53%; inhibition of growth at 10 µM (OVCAR-4): 19%; inhibition of growth at 10 µM (CAKI-1): < 10%; inhibition of growth at 10 µM (SF-539): 18%; inhibition of growth at 10 µM (SNB-75): < 10%; inhibition of growth at 10 µM (SK-MEL-5): 24%
